Reference: patent publication US11752156B2, “Compositions and methods for treating hyperproliferative skin disorders” (Athenex HK Innovative Limited, priority 2018, dated 2023)
“And” between values parts separate entries of the source, which are not always exact repeats. Equal values may be shown once. Read-outs that look alike come from different tables or passages of the source.

Tests used:
[1] = system: squamous cell human carcinoma cell line (SCC A431); test: MTT cell proliferation assay, 72 hours, dark or blue light, squamous cell carcinoma; assay type: cell-based; conditions: for inhibition at 0.02 µM / inhibition at 0.04 µM / inhibition at 0.08 µM / inhibition at 0.01 µM: Homo sapiens, read-out: growth inhibition relative to untreated control
Description: The effects of combined treatment with KX01, a vitamin D derivative, and/or blue/UV light exposure were characterized using a cell proliferation assay. Cell proliferation was assessed by using an MTT assay. Cells were seeded in 96-well plate (3,000-5,000 cells per well) and treated with test compounds at varying concentrations (e.g. KX01: 5 to 80 nM; calcipotriol 5 to 1,280 nM) for 72 hours, either in the dark or exposed to blue light irradiation (for 2, 4, or 6 hours). To each well, 10 μl of 3-(4,5-dimethylthiazol-2-yl)-2,5-diphenyltetrazolium bromide (MTT) (RPI Corporation™) solution (5 mg/ml in PBS) was added and incubated at 37° C. for 3 hours. Next, 100 μl of 20% SDS was added to each well. After overnight incubation at 37° C., the absorbance in each well was measured at 570 nm in a microplate reader (Molecular Devices™). The cell growth curve and GI50s were calculate using GraphPad Prism™ 5 software. Similar studies were performed using a squamous cell carcinoma cell line (SCC A431). Tables 19 and 20 show the results of cell growth inhibition studies (expressed as a percentage relative to control cell growth) for treatment with either KX01 or calcipotriol in combination with exposure to blue light. […] The percentage of growth inhibition relative to untreated control is shown. Tables 21 to 24 show the effects of combined treatment with KX01, calcipotriol, and exposure to blue light at 0 hours, 2 hours, 4 hours, and 6 hours of light exposure (respectively) on human squamous cell carcinoma cells. Values are expressed as the percentage of growth inhibition relative to cells grown under control conditions (0 hours blue light, [KX01]=0, [calcipotriol]=0). The percentage of growth inhibition relative to an untreated control is shown. […] Results are shown below in Tables 31 and 32, which show results for KX01 and calcipotriol (respectively). Values are expressed as the percentage of growth inhibition relative to cells grown under control conditions (0 hours blue light, [KX01]=0, [calcipotriol]=0). […] Results are shown below in Tables 33 to Table 36, which show results from 0, 2, 4, and 6 hours of blue light exposure (respectively). Values are expressed as the percentage of growth inhibition relative to cells grown under control conditions (0 hours blue light, [KX01]=0, [calcipotriol]=0).

[2] = system: human keratinocyte cell line; test: inhibition of human keratinocyte growth, individual dose response, 72 hours, MTT assay; assay type: cell-based; conditions: 72 hour exposure
Description: FIG. 4: Inhibition of human keratinocyte growth versus KX01 concentration (treatment duration: 72 hours; cell growth measured using the MTT assay). […] FIG. 5: Inhibition of human keratinocyte growth versus calcipotriol concentration (treatment duration: 72 hours; cell growth measured using the MTT assay). […] A human keratinocyte cell line was used in these studies.

CCD-1106 KERTr cells = test: FITC annexin V / PI apoptosis assay by flow cytometry, 24 hours; assay type: cell-based, human; conditions: 24 hours
Description: In addition to growth inhibition, Inventors also investigated the effect of KX01 on apoptosis in keratinocytes. CCD-1106 KERTr cells (1×10^6) were seeded in 60 mm dishes and treated with test compounds at varying concentrations (e.g. KX01: 20 to 500 nM; calcipotriol 50 to 1000 nM) for 24 hours. Cell apoptosis was assessed by using a FITC annexin V apoptosis detection kit (BD Biosciences™) according to manufacturer's instruction. Briefly, cells were collected in 1× binding buffer and incubated with fluorescein isothiocyanate (FITC)-conjugated annexin V and propidium iodide (PI) for 15 minutes at room temperature in the dark, followed by flow cytometry analysis using a LSRFortessa™ flow cytometer (BD Biosciences™).

Work on `O=C(Cc1ccc(-c2ccc(OCCN3CCOCC3)cc2)cn1)NCc1ccccc1` [KX01, N-benzyl-2-(5-{4-[2-(morpholine-4-yl)ethoxy]phenyl}pyridine-2-yl)acetamide] yielded an inhibition at 0.02 µM ([1]; A-431, 0 h, KX01 20 nM, blue light 0 h) of 99%, an inhibition at 0.04 µM ([1]; A-431, 0 h, KX01 40 nM, blue light 0 h) of 99% and an inhibition at 0.08 µM ([1]; A-431, 0 h, KX01 80 nM, blue light 0 h) of 99%. The inhibition at 0.01 µM ([1]; A-431, 2 h, KX01 10 nM, blue light 2 h) was 40%, the inhibition at 0.02 µM ([1]; A-431, 2 h, KX01 20 nM, blue light 2 h) was 97% and the inhibition at 0.04 µM ([1]; A-431, 2 h, KX01 40 nM, blue light 2 h) was 97%. The inhibition at 0.08 µM ([1]; A-431, 2 h, KX01 80 nM, blue light 2 h) was 95%, the inhibition at 0.01 µM ([1]; A-431, 4 h, KX01 10 nM, blue light 4 h) was 66% and the inhibition at 0.02 µM ([1]; A-431, 4 h, KX01 20 nM, blue light 4 h) was 76%. The inhibition at 0.04 µM ([1]; A-431, 4 h, KX01 40 nM, blue light 4 h) was 73%, the inhibition at 0.08 µM ([1]; A-431, 4 h, KX01 80 nM, blue light 4 h) was 75% and the inhibition at 0.01 µM ([1]; A-431, 6 h, KX01 10 nM, blue light 6 h) was 79%. For the same molecule, the inhibition at 0.02 µM ([1]; A-431, 6 h, KX01 20 nM, blue light 6 h) was 81%, the inhibition at 0.04 µM ([1]; A-431, 6 h, KX01 40 nM, blue light 6 h) was 81% and the inhibition at 0.08 µM ([1]; A-431, 6 h, KX01 80 nM, blue light 6 h) was 82%. The “growth inhibition relative to untreated control” value ([1]; KX01 10 nM, blue light 0 h) was 0% and 11%, the “growth inhibition relative to untreated control” value ([1]; KX01 10 nM, blue light 2 h) was 44% and the “growth inhibition relative to untreated control” value ([1]; KX01 10 nM, blue light 6 h) was 77%. For the same molecule, the “growth inhibition relative to untreated control” value ([1]; KX01 20 nM, blue light 0 h) was 80%, the “growth inhibition relative to untreated control” value ([1]; KX01 20 nM, blue light 2 h) was 83% and the “growth inhibition relative to untreated control” value ([1]; KX01 20 nM, blue light 4 h) was 69% and 74%. The “growth inhibition relative to untreated control” value ([1]; KX01 20 nM, blue light 6 h) was 83%, the “growth inhibition relative to untreated control” value ([1]; KX01 40 nM, blue light 0 h) was 100% and the “growth inhibition relative to untreated control” value ([1]; KX01 40 nM, blue light 4 h) was 80%. The “growth inhibition relative to untreated control” value ([1]; KX01 40 nM, blue light 6 h) was 86%, the “growth inhibition relative to untreated control” value ([1]; KX01 80 nM, blue light 2 h) was 98% and the “growth inhibition relative to untreated control” value ([1]; KX01 80 nM, blue light 4 h) was 84%. The “growth inhibition relative to untreated control” value ([1]; KX01 80 nM, blue light 6 h) was 88%, the “effect of blue light exposure with the drug on cell growth inhibition” value ([1]; for example at 10 nM KX01) was “Synergistic effects” and the IC50 [2] was 41.9 nM. It also gave a late apoptic cells (CCD-1106 KERTr cells; KX01 20 nM) of 2.09%, a late apoptic cells (CCD-1106 KERTr cells; KX01 40 nM) of 3.50% and a late apoptic cells (CCD-1106 KERTr cells; KX01 100 nM) of 6.33%. The late apoptic cells (CCD-1106 KERTr cells; KX01 500 nM) was 4.34%.
